These results are taken from US20200339548A1, “PYRIMIDINE DERIVATIVES AND THEIR USE FOR THE TREATMENT OF CANCER” (Adorx Therapeutics Limited, priority 2017, published 2020).

For one test, the target named is T1, Adenosine A2a receptor (Homo sapiens, UniProt P29274).
T1 construct: expressed in transfected cells; host or cells: CHO cell membranes
The test can be described thus: Adenosine receptor TR-FRET binding assay, A2a. Conditions: displacement of 100 nM CA200645, CHO cell membranes. The procedure, abridged: (§1)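 Competition TR-FRET binding in CHO cell membranes expressing terbium-labelled human receptors, displacing fluorescent XAC (CA200645; 30 nM for A2b, 100 nM for A1, A2a, A3); 2 h at room temperature with saponin buffer, 1% DMSO. 665/620 nm ratio; non-specific with 10 μM XAC; Ki by Cheng–Prusoff from IC50.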
(In general: Time-resolved FRET reads energy transfer from a long-lived donor to a nearby acceptor.)

A further test has as its target T2, Adenosine A2b receptor (Homo sapiens, UniProt P29275).
T2 construct: expressed in transfected cells; host or cells: CHO cell membranes
T2 sequence (P29275 1-332): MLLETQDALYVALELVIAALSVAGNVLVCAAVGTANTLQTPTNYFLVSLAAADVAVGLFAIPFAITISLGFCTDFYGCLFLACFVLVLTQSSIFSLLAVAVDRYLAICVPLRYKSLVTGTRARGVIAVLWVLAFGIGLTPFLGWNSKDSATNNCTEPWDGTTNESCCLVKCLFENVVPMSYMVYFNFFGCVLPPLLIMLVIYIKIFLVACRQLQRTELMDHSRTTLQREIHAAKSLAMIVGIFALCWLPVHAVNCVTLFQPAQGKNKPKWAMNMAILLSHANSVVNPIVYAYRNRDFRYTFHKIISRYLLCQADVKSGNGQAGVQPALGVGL
The test can be described thus: Adenosine receptor TR-FRET binding assay, A2b. Conditions: Table 9, further testing; displacement of 30 nM CA200645, CHO cell membranes. The procedure, abridged:
as §1

The next test has as its target T3, Adenosine A1 receptor (Homo sapiens, UniProt P30542).
T3 construct: expressed in transfected cells; host or cells: CHO cell membranes
T3 sequence (P30542 1-326): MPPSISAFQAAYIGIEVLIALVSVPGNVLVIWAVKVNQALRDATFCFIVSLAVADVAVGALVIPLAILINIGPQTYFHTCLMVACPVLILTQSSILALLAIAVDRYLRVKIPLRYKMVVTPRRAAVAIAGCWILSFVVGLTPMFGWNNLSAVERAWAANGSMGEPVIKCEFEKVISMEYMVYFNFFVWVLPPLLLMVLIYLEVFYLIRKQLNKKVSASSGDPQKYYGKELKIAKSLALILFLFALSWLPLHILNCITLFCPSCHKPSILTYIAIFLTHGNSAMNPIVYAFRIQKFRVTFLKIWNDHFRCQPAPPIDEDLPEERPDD
The test can be described thus: Adenosine receptor TR-FRET binding assay, A1. Conditions: Table 9, further testing; displacement of 100 nM CA200645, CHO cell membranes. The procedure, abridged: as §1

The target of a further test is T4, Adenosine A3 receptor (Homo sapiens, UniProt P0DMS8).
T4 construct: expressed in transfected cells; host or cells: CHO cell membranes
T4 sequence (P0DMS8 1-318): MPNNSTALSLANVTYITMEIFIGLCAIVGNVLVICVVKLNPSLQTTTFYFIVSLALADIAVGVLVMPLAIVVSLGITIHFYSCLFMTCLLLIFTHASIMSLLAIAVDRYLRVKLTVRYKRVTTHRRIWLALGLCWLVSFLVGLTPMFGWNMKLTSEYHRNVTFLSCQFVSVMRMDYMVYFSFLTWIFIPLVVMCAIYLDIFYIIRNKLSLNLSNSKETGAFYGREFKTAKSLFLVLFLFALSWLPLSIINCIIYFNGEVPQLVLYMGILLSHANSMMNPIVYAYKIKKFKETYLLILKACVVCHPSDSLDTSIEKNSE
Put plainly: Adenosine receptor TR-FRET binding assay, A3. The protocol:
All FRET binding experiments were conducted at room temperature in white 384-well plates, in assay binding buffer containing 1× LabMed (Cisbio, France), 100 μg/mL saponin, 1% DMSO and 0.02% pluronic acid. Binding of the fluorescently labelled Adenosine receptor antagonist XAC (CA200645, FRET acceptor) to terbium-labelled A1, A2a, A2b and A3 adenosine receptors (FRET donors) was detected by time-resolved FRET due to the close proximity of the donor and acceptor in a binding event. To investigate the ability of unlabelled test compounds to bind to Adenosine A1, A2a, A2b and A3 receptors, dose response curves were constructed that determined the ability of a range of concentrations to inhibit the binding of 30 nM CA200645 to the A2b receptor and 100 nM CA200645 to the A1, A2a, and A3 receptor.
Serial dilution (1:3 dilutions) of test compounds in neat DMSO and transfer of a 400 nL sample of test compound into the assay plate was carried out using the Mosquito (TTP Labtech, UK). The compound samples were incubated for 2 hours at room temperature with a fixed concentration of CA200645 defined for each receptor (see above) and CHO cell membranes containing the human Adenosine A1 (0.5 μg/well), A2a (0.3 μg/well), A2b (1 μg/well) or A3 (1 μg/well) receptor in 40 μL of assay buffer. Total and non-specific binding of CA200645 was determined in the absence and presence of 10 μM XAC, respectively.
Following 2 hours incubation, the level of CA200645 binding was detected on a Pherastar FSX (BMG Labtech, Germany) using standard TR-FRET settings. The terbium donor was excited with three laser flashes at a wavelength of 337 nm, and donor and acceptor emission was detected at 620 nm and 665 nm wavelengths, respectively. FRET ratios were obtained by multiplying the acceptor/donor ratio value by 10,000. Specific binding was determined by subtracting the non-specific binding FRET ratio from the total binding FRET ratio. Compound IC50 curves were analysed using GraphPad Prism 7.0 (GraphPad, USA) and Ki affinity values were determined from the obtained […] values using the method of Cheng and Prusoff.

Where [1] appears, read: Table 9, further testing, displacement of 100 nM CA200645, CHO cell membranes, read-out: A3 Ki.

Like-named read-outs stand apart in the source and are kept apart here.

T1 sequence (P29274 whole entry): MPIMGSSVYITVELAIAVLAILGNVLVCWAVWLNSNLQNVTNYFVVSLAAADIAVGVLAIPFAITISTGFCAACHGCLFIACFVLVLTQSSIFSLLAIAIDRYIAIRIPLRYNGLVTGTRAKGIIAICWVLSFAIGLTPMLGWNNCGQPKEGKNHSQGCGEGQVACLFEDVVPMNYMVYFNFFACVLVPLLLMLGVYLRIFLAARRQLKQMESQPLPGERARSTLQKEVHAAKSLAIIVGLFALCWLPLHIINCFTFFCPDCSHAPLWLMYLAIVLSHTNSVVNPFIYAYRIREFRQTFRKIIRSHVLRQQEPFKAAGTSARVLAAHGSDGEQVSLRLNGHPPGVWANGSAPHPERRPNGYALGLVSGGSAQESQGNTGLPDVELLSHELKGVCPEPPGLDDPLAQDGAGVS

Regarding `Cc1cccnc1CNC(=O)c1c(N)nc(-c2ccco2)nc1Cl` [Example 13, 4-Amino-6-chloro-2-(2-furyl)-N-[(3-methyl-2-pyridyl)methyl]pyrimidine-5-carboxamide], the Ki at Adenosine A2a receptor (Table 8, Cheng and Prusoff) came to 20 nM; at Adenosine A2a receptor (Table 9, further testing), 20 nM; at Adenosine A2b receptor it was 3890 nM; at Adenosine A1 receptor it was 314 nM; on Adenosine A3 receptor (setting [1]) it was 1190 nM.
For the molecule `Nc1nc(-c2ccco2)ncc1C(=O)NCc1cccc(F)c1` [Example 5.13, 4-Amino-N-[(3-fluorophenyl)methyl]-2-(2-furyl)pyrimidine-5-carboxamide], the inhibition constant (Ki) on Adenosine A2a receptor (Table 8, Cheng and Prusoff) stood at 20 nM; at Adenosine A2a receptor (Table 9, further testing), 20 nM; at Adenosine A2b receptor, 3970 nM; on Adenosine A1 receptor, 3550 nM; on Adenosine A3 receptor (setting [1]) it was 2680 nM.
For `Cc1cccnc1CNC(=O)c1c(N)nc(-c2ccco2)nc1OCC(F)(F)F` [Example 20.2, 4-Amino-2-(2-furyl)-N-[(3-methyl-2-pyridyl)methyl]-6-(2,2,2-trifluoroethoxy)pyrimidine-5-carboxamide], the Ki on Adenosine A2a receptor (Table 9, further testing) was 0.21 nM; on Adenosine A2b receptor, 37 nM; on Adenosine A1 receptor it was 4 nM; on Adenosine A3 receptor (setting [1]), 9.9 nM.
`COc1cc(CNC(=O)c2cnc(-c3cccc(F)c3)nc2N)cc(OC)c1` [Example 10.9, 4-Amino-N-[(3,5-dimethoxyphenyl)methyl]-2-(3-fluorophenyl)pyrimidine-5-carboxamide]: the Ki at Adenosine A2a receptor (Table 8, Cheng and Prusoff) worked out at 661 nM; at Adenosine A2a receptor (Table 9, further testing) it was 661 nM; at Adenosine A2b receptor it was 1170 nM; at Adenosine A1 receptor, 811 nM; on Adenosine A3 receptor, 1160 nM.
Regarding `Nc1nc(-c2cccc(F)c2)ncc1C(=O)NCc1cc(F)cc(F)c1` [Example 10.7, 4-Amino-N-[(3,5-difluorophenyl)methyl]-2-(3-fluorophenyl)pyrimidine-5-carboxamide], the inhibition constant Ki on Adenosine A2a receptor (Table 8, Cheng and Prusoff) was determined as 104 nM; at Adenosine A2a receptor (Table 9, further testing), 104 nM; at Adenosine A2b receptor it was 2420 nM; at Adenosine A1 receptor, 238 nM; at Adenosine A3 receptor (setting [1]), 778 nM.
As to `Nc1nc(-c2cccc(F)c2)ncc1C(=O)NCc1cccc(F)c1` [Example 10.3, 4-Amino-2-(3-fluorophenyl)-N-[(3-fluorophenyl)methyl]pyrimidine-5-carboxamide], the Ki at Adenosine A2a receptor (Table 8, Cheng and Prusoff) is 180 nM; on Adenosine A2a receptor (Table 9, further testing), 180 nM; on Adenosine A2b receptor it was 1360 nM; on Adenosine A1 receptor it was 598 nM; at Adenosine A3 receptor (setting [1]) it was 504 nM.
Turning to `CCOC(=O)c1nnc(-c2ccco2)nc1N` [Example 1, Ethyl 5-amino-3-(2-furyl)-1,2,4-triazine-6-carboxylate], the Ki was determined as 60 nM on Adenosine A2a receptor (Table 8, Cheng and Prusoff); 61 nM at Adenosine A2a receptor (Table 9, further testing); 382 nM on Adenosine A2b receptor; 314 nM at Adenosine A1 receptor; 101 nM at Adenosine A3 receptor (setting [1]).
Regarding `Cc1cccnc1CNC(=O)c1c(N)nc(-c2ccco2)nc1OCCO` [Example 20.1, 4-Amino-2-(2-furyl)-6-(2-hydroxyethoxy)-N-[(3-methyl-2-pyridyl)methyl]pyrimidine-5-carboxamide], the Ki was 0.13 nM on Adenosine A2a receptor (Table 9, further testing); 107 nM at Adenosine A2b receptor; 5.4 nM on Adenosine A1 receptor; 86 nM on Adenosine A3 receptor (setting [1]).
As to `Cc1ccc(CNC(=O)c2cnc(-c3cccc(F)c3)nc2N)cc1` [Example 10, 4-Amino-2-(3-fluorophenyl)-N-(p-tolylmethyl)pyrimidine-5-carboxamide], the inhibition constant (Ki) came out at 796 nM at Adenosine A2a receptor (Table 8, Cheng and Prusoff); 796 nM on Adenosine A2a receptor (Table 9, further testing); 8490 nM on Adenosine A2b receptor; 4440 nM at Adenosine A1 receptor; 1800 nM on Adenosine A3 receptor (setting [1]).
For the molecule `Cc1cccc(CNC(=O)c2cnc(-c3ccco3)nc2N)n1` [Example 5.32, 4-Amino-2-(2-furyl)-N-[(6-methyl-2-pyridyl)methyl]pyrimidine-5-carboxamide], the Ki turned out to be 3.3 nM on Adenosine A2a receptor (Table 9, further testing); 437 nM on Adenosine A2b receptor; 1890 nM on Adenosine A1 receptor; 1410 nM at Adenosine A3 receptor (setting [1]).
`Nc1nc(-c2ccco2)ncc1C(=O)NCc1cccc2c1OCO2` [Example 5.52, 4-Amino-N-(1,3-benzodioxol-4-ylmethyl)-2-(2-furyl)pyrimidine-5-carboxamide]: the Ki worked out at 11 nM on Adenosine A2a receptor (Table 9, further testing); 5130 nM at Adenosine A2b receptor; 4790 nM on Adenosine A1 receptor; 3090 nM at Adenosine A3 receptor (setting [1]).

As usually defined, the Ki is a measure of affinity in units of concentration, obtained from inhibition or displacement.
